In general, IC50 refers to the concentration at which inhibition is half-maximal. Lower therefore signals greater potency. By inhibition in vivo is commonly meant the relative decrease from the control value, in per cent. A higher inhibition in vivo goes with a strong effect. In general, melting point refers to the temperature, or range, at which the solid turns liquid.

In data set [1] the target is smooth muscle angiotensin II receptor. In words: Assay A: Angiotensin II Binding Activity (125I-angiotensin II displacement, rat uterine membrane preparation). As to conditions: 50% displacement of specifically bound 125I-AII, rat uterine membranes, 25° C., 60 min. As for the experimental part:
Assay A: Angiotensin II Binding Activity
Compounds of the invention were tested for ability to bind to the smooth muscle angiotensin II receptor using a rat uterine membrane preparation. […] Other chemicals were obtained from Sigma Chemical Co. This assay was carried out according to the method of Douglas et al [Endocrinology, 106, 120-124 (1980)]. Rat uterine membranes were prepared from fresh tissue. All procedures were carried out at 4° C. Uteri were stripped of fat and homogenized in phosphate-buffered saline at pH 7.4 containing 5 mM EDTA. The homogenate was centrifuged at 1500×g for 20 min., and the supernatant was recentrifuged at 100,000×g for 60 min. The pellet was resuspended in buffer consisting of 2 mM EDTA and 50 mM Tris-HCl (pH 7.5) to a final protein concentration of 4 mg/ml. Assay tubes were charged with 0.25 ml of a solution containing 5 mM MgCl2, 2 mM EDTA, 0.5% bovine serum albumin, 50 mM Tris-HCl, pH 7.5 and […] (approximately 10^5 cpm) in the absence or in the presence of unlabelled ligand. The reaction was initiated by the addition of membrane protein and the mixture was incubated at 25° C. for 60 min. The incubation was terminated with ice-cold 50 mM Tris-HCl (pH 7.5) and the mixture was filtered to separate membrane-bound labelled peptide from the free ligand. The incubation tube and filter were washed with ice-cold buffer. Filters were assayed for radioactivity in a Micromedic gamma counter. Nonspecific binding was defined as binding in the presence of 10 μM of unlabelled AII. Specific binding was calculated as total binding minus nonspecific binding. […] Binding data were analyzed by a nonlinear least-squares curve fitting program.

In another data set the test system is rabbit aortic rings. In words: Assay B: In Vitro Vascular Smooth Muscle Response for AII (antagonist activity in rabbit aortic rings). As to conditions: Oryctolagus cuniculus, test antagonist at 10^-5 M, AII contraction, read-out: Assay B pA2 (converted). Type of data set: cell-based. How it is done:
Assay B: In Vitro Vascular Smooth Muscle-Response for AII
The compounds of the invention were tested for antagonist activity in rabbit aortic rings. Male New Zealand white rabbits (2-2.5 kg) were sacrificed using an overdose of pentobarbital and exsanguinated via the carotid arteries. The thoracic aorta was removed, cleaned of adherent fat and connective tissue and then cut into 3-mm ring segments. The endothelium was removed from the rings by gently sliding a rolled-up piece of filter paper into the vessel lumen. The rings were then mounted in a water-jacketed tissue bath, maintained at 37° C., between moveable and fixed ends of a stainless steel wire with the moveable end attached to an FT03 Grass transducer coupled to a Model 7D Grass Polygraph for recording isometric force responses. The bath was filled with 20 ml of oxygenated (95% oxygen/5% carbon dioxide) Krebs solution of the following composition (mM): 130 NaCl, 15 NaHCO3, […], 1.2 NaH2PO4, 1.2 MgSO4, 2.5 CaCl2, and 11.4 glucose. The preparations were equilibrated for one hour before approximately one gram of passive tension was placed on the rings. Angiotensin II concentration-response curves were then recorded (3×10^−10 to 1×10^−5 M). Each concentration of AII was allowed to elicit its maximal contraction, and then AII was washed out repeatedly for 30 minutes before rechallenging with a higher concentration of AII. Aorta rings were exposed to the test antagonist at 10^−5 M for 5 minutes before challenging with AII. Adjacent segments of the same aorta ring were used for all concentration-response curves in the presence or absence of the test antagonist. The effectiveness of the test compound was expressed in terms of pA2 values and were calculated according to H. O. Schild [Br. J. Pharmacol. Chemother., 2,189-206 (1947)]. The PA2 value is the concentration of the antagonist which increases the EC50 value for AII by a factor of two. Each test antagonist was evaluated in aorta rings from two rabbits.

The next data set has as its system pressor response to AII. In words: Assay C: In Vivo Intragastric Pressor Assay Response for AII Antagonists. On the set-up: species or system rat. The following applies: for Assay C Duration: Dose: 3 mg/kg (i.g.), Sprague-Dawley rats, AII challenges up to 180 minutes after gavage; for inhibition in vivo at 3 mg/kg: Rattus norvegicus, po. As for the experimental part: Assay C: In Vivo Intragastric Pressor Assay Response for AII Antagonists
Male Sprague-Dawley rats weighing 225-300 grams were anesthetized with methohexital (30 mg/kg, i.p.) and catheters were implanted into the femoral artery and vein. The catheters were tunneled subcutaneously to exit dorsally, posterior to the head and between the scapulae. The catheters were filled with heparin (1000 units/ml of saline). The rats were returned to their cage and allowed regular rat chow and water ad libitum. After full recovery from surgery (3-4 days), rats were placed in Lucite holders and the arterial line was connected to a pressure transducer. Arterial pressure was recorded on a Gould polygraph (mmHg). Angiotensin II was administered as a 30 ng/kg bolus via the venous catheter delivered in a 50 μl volume with a 0.2 ml saline flush. The pressor response in mm Hg was measured by the difference from pre-injection arterial pressure to the maximum pressure achieved. The AII injection was repeated every 10 minutes until three consecutive injections yielded responses within 4 mmHg of each other. These three responses were then averaged and represented the control response to AII. The test compound was suspended in 0.5% methylcellulose in water and was administered by gavage. The volume administered was 2 ml/kg body weight. The standard dose was 3 mg/kg. Angiotensin II bolus injections were given at 30, 45, 60, 75, 120, 150, and 180 minutes after gavage. The pressor response to AII was measured at each time point. The rats were then returned to their cage for future testing. A minimum of 3 days was allowed between tests. Percent inhibition was calculated for each time point following gavage by the following formula: [(Control Response−Response at time point)/Control Response]×100.

Setting [2] is: first value of the pair (aorta rings from two rabbits).
Where [3] appears, read: second value of the pair (aorta rings from two rabbits).

Read-outs that look alike come from different tables or passages of the source.

`CCCCc1cn(C2CCCCC2)c(=O)n1Cc1ccc(-c2ccccc2-c2nnn[nH]2)nc1` [Example 21, 1-cyclohexyl-4-butyl-1,3-dihydro-3-[[6-[2-(1H-tetrazol-5-yl)phenyl]-3-pyridinyl]methyl]-2H-imidazol-2-one]: the melting point was 202 to 203 °C (dec.). This compound also returned an IC50 in data set [1] of 20 nM. The Kb in the data set with rabbit aortic rings (setting [2]) is 0.724 nM. In the data set with rabbit aortic rings (setting [3]), the Kb is 0.708 nM. For the same compound, in the data set with pressor response to AII, the “Assay C Duration” value is above 180 min and the inhibition in vivo at 3 mg/kg amounted to 40%.

`CCCCc1cn(CC(C)(C)C)c(=O)n1Cc1ccc(-c2ccccc2-c2nnn[nH]2)nc1` [Example 18, 1-neopentyl-4-butyl-1,3-dihydro-3-[[6-[2-(1H-tetrazol-5-yl)phenyl]-3-pyridinyl]methyl]-2H-imidazol-2-one] returned a melting point of 194.5 to 195 °C. The compound further gave an IC50 in data set [1] of 12 nM. The Kb with rabbit aortic rings (setting [2]) is 1.62 nM. For the same compound, the Kb with rabbit aortic rings (setting [3]) is 2.29 nM. In the data set on pressor response to AII, the “Assay C Duration” value is above 180 min and at 3 mg/kg the inhibition in vivo was 65%.

In turn, `CCCCc1cn(-c2ccccc2Cl)c(=O)n1Cc1ccc(-c2ccccc2-c2nnn[nH]2)nc1` [Example 32, 1-(2-chlorophenyl)-4-butyl-1,3-dihydro-3-[[6-[2-(1H-tetrazol-5-yl)phenyl]-3-pyridinyl]methyl]-2H-imidazol-2-one] showed a melting point of 81 to 83 °C. The same compound showed an IC50 in data set [1] of 5.4 nM. Also, the Kb in the data set on rabbit aortic rings (setting [2]) was 1.58 nM. Also, the Kb in the data set with rabbit aortic rings (setting [3]) is 0.912 nM. For the same compound, in the data set on pressor response to AII, the “Assay C Duration” value is above 180 min and 3 mg/kg produced 50% inhibition in vivo.

In turn, `CCCCCc1cn(CCCC)c(=O)n1Cc1ccc(-c2ccccc2-c2nnn[nH]2)nc1` [Example 6, 1-butyl-4-yl-1,3-dihydro-3-[[6-[2-(1H-tetrazol-5-yl)phenyl]-3-pyridinyl]methyl]-2H-imidazol-2-one] showed a melting point of 176 to 177 °C. The IC50 in data set [1] worked out at 10 nM. In the data set with rabbit aortic rings (setting [2]), the Kb is 13.5 nM. The Kb in the data set with rabbit aortic rings (setting [3]) is 12.9 nM. Also, in the data set on pressor response to AII, the “Assay C Duration” value stood at 180 min and the inhibition in vivo at 3 mg/kg was found to be 10%.

As for `CCCCc1cn(CC2CCCC2)c(=O)n1Cc1ccc(-c2ccccc2-c2nnn[nH]2)nc1` [Example 24, 1-cyclopentylmethyl-4-butyl-1,3-dihydro-3-[[6-[2-(1H-tetrazol-5-yl)phenyl]-3-pyridinyl]methyl]-2H-imidazol-2-one], the melting point is 204 °C (dec.). In data set [1], this compound registered an IC50 of 22 nM. In the data set with rabbit aortic rings (setting [2]), the Kb was 0.646 nM. Also, the Kb with rabbit aortic rings (setting [3]) was 2.04 nM. Besides, in the data set on pressor response to AII, the “Assay C Duration” value is above 180 min and the inhibition in vivo at 3 mg/kg is 50%.

As to `CCCCc1cn(CCc2cccs2)c(=O)n1Cc1ccc(-c2ccccc2-c2nnn[nH]2)nc1` [Example 25, 1-[2-(2-thienyl)ethyl]-4-butyl-1,3-dihydro-3-[[6-[2-(1H-tetrazol-5-yl)phenyl]-3-pyridinyl]methyl]-2H-imidazol-2-one], the melting point is 137 to 138 °C. Besides, the IC50 in data set [1] was 5 nM. Also, the Kb with rabbit aortic rings (setting [2]) is 0.389 nM. In the data set on rabbit aortic rings (setting [3]), the Kb was 0.692 nM. In the data set on pressor response to AII, the “Assay C Duration” value is above 180 min and at 3 mg/kg the inhibition in vivo was 25%.

In turn, `CCCCCn1cc(CCCC)n(Cc2ccc(-c3ccccc3-c3nnn[nH]3)nc2)c1=O` [Example 15, 1-pentyl-4-butyl-1,3-dihydro-3-[[6-[2-(1H-tetrazol-5-yl)phenyl]-3-pyridinyl]methyl]-2H-imidazol-2-one] displayed a melting point of 162 to 164 °C. Moreover, the IC50 in data set [1] worked out at 10 nM. Further, the Kb with rabbit aortic rings (setting [2]) is 1.62 nM. Further, the Kb with rabbit aortic rings (setting [3]) was 1.41 nM. Moreover, in the data set on pressor response to AII, the “Assay C Duration” value is above 180 min and testing at 3 mg/kg gave an inhibition in vivo of 60%.

For `CCCCc1cn(CCCC)c(=O)n1Cc1ccc(-c2ccccc2-c2nnn[nH]2)nc1` [Example 1, 1,4-dibutyl-1,3-dihydro-3-[[6-[2-(1H-tetrazol-5-yl)phenyl]-3-pyridinyl]methyl]-2H-imidazol-2-one], the melting point was 170 to 171 °C. In addition, in data set [1], the IC50 was 6.5 nM. In addition, the Kb in the data set on rabbit aortic rings (setting [2]) is 1.51 nM. The Kb with rabbit aortic rings (setting [3]) is 2.95 nM. In addition, in the data set with pressor response to AII, the “Assay C Duration” value is above 180 min and the inhibition in vivo at 3 mg/kg came to 50%.

For the compound `CCCCc1cn(CC(CC)CC)c(=O)n1Cc1ccc(-c2ccccc2-c2nnn[nH]2)nc1` [Example 20, 1-(2-ethylbutyl)-4-butyl-1,3-dihydro-3-[[6-[2-(1H-tetrazol-5-yl)phenyl]-3-pyridinyl]methyl]-2H-imidazol-2-one], the melting point is 174 to 176 °C (dec.). Besides, the IC50 in data set [1] came to 16 nM. The Kb with rabbit aortic rings (setting [2]) is 0.676 nM. For the same compound, the Kb in the data set with rabbit aortic rings (setting [3]) is 1.38 nM. Also, in the data set with pressor response to AII, the “Assay C Duration” value was above 180 min and the inhibition in vivo at 3 mg/kg turned out to be 75%.

In the case of `CCCCc1cn(CCC(C)C)c(=O)n1Cc1ccc(-c2ccccc2-c2nnn[nH]2)nc1` [Example 14, 1-isopentyl-4-butyl-1,3-dihydro-3-[[6-[2-(1H-tetrazol-5-yl)phenyl]-3-pyridinyl]methyl]-2H-imidazol-2-one], the melting point is 168.5 to 170 °C. In data set [1], the IC50 was 7.6 nM. Besides, the Kb with rabbit aortic rings (setting [2]) was 1.74 nM. In the data set with rabbit aortic rings (setting [3]), the Kb was 2.29 nM. Also, in the data set with pressor response to AII, the “Assay C Duration” value is above 180 min and the inhibition in vivo at 3 mg/kg stood at 35%.

Regarding `CCCCc1cn(CCC2CC2)c(=O)n1Cc1ccc(-c2ccccc2-c2nnn[nH]2)nc1` [Example 22, 1-(2-cyclopropylethyl)-4-butyl 1,3-dihydro3-[[6-[2-(1H-tetrazol-5-yl)phenyl]-3-pyridinyl]methyl]-2H-imidazol-2-one], the melting point lay within 182 to 183 °C. Further, the IC50 in data set [1] worked out at 5.4 nM. In the data set on rabbit aortic rings (setting [2]), the Kb was 1.78 nM. Moreover, in the data set on rabbit aortic rings (setting [3]), the Kb is 1.29 nM. In the data set on pressor response to AII, the “Assay C Duration” value was above 180 min and the inhibition in vivo at 3 mg/kg worked out at 30%.

Source of the values: patent US6492397B1, “N-arylheteroarylalkyl imidazol-2-one compounds for treatment of arteriosclerosis” (Pharmacia Corporation, priority 1991, dated 2002).
